Source: PubChem BioAssay AID2060511 (Molecular Pharmacology Branch, DTP, NCI, 2025)

Test system: 422866-222-R5-J1-PDC spheroids with HUVEC/MSC, viability
Experiment: Anticancer human tumor 422866-222-R5-J1-PDC patient-derived pancreatic adenocarcinoma cell line growth inhibition [GQUAD]
Conditions: for IC50: curve of first compound; for viability, T/C: stronger effect = lower value
In short: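 Multi-cell-type spheroids of tumor cells with HUVEC and mesenchymal stem cells, treated with drug combinations. Concentrations descend in half-log steps from near clinical Cmax, or from 10 microM where Cmax is unknown; viability read-out.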

[1] = second compound 0.0316 µM, first compound 0.0316 µM
[2] = second compound 0.0316 µM, first compound 0.1 µM
[3] = second compound 0.0316 µM, first compound 0.316 µM
[4] = second compound 0.0316 µM, first compound 1 µM
[5] = second compound 0.0316 µM, first compound 3.16 µM
[6] = second compound 0.0316 µM, first compound 10 µM
[7] = second compound 0.1 µM, first compound 0.0316 µM
[8] = second compound 0.1 µM, first compound 0.1 µM
[9] = second compound 0.1 µM, first compound 0.316 µM
[10] = second compound 0.1 µM, first compound 1 µM
[11] = second compound 0.1 µM, first compound 3.16 µM
[12] = second compound 0.1 µM, first compound 10 µM
[13] = second compound 0.316 µM, first compound 0.0316 µM
[14] = second compound 0.316 µM, first compound 0.1 µM
[15] = second compound 0.316 µM, first compound 0.316 µM
[16] = second compound 0.316 µM, first compound 1 µM
[17] = second compound 0.316 µM, first compound 3.16 µM
[18] = second compound 0.316 µM, first compound 10 µM
[19] = second compound 1 µM, first compound 0.0316 µM
[20] = second compound 1 µM, first compound 0.1 µM
[21] = second compound 1 µM, first compound 0.316 µM
[22] = second compound 1 µM, first compound 1 µM
[23] = second compound 1 µM, first compound 3.16 µM
[24] = second compound 1 µM, first compound 10 µM
[25] = second compound 3.16 µM, first compound 0.0316 µM
[26] = second compound 3.16 µM, first compound 0.1 µM
[27] = second compound 3.16 µM, first compound 0.316 µM
[28] = second compound 3.16 µM, first compound 1 µM
[29] = second compound 3.16 µM, first compound 3.16 µM
[30] = second compound 3.16 µM, first compound 10 µM
[31] = second compound 10 µM, first compound 0.0316 µM
[32] = second compound 10 µM, first compound 0.1 µM
[33] = second compound 10 µM, first compound 0.316 µM
[34] = second compound 10 µM, first compound 1 µM
[35] = second compound 10 µM, first compound 3.16 µM
[36] = second compound 10 µM, first compound 10 µM
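Note: spheroids exposed to compounds for seven days before reading.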
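Throughout, for viability, T/C: percent viability relative to DMSO vehicle control taken as 100%.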

## C#Cc1c(F)ccc2cc(O)cc(-c3ncc4c(N5CC6CCC(C5)N6)nc(OCC56CCCN5CC(F)C6)nc4c3F)c12 (stereo unspecified) + CN(C)c1ccc(Nc2c3ccc(NC(=O)CCN4CCCC4)cc3nc3cc(NC(=O)CCN4CCCC4)ccc23)cc1
Second compound 0.0316 µM
  IC50: 1130 nM
Second compound 0.1 µM
  IC50: 1250 nM
Second compound 0.316 µM
  IC50: 1190 nM
Second compound 1 µM
  IC50: 1110 nM
Second compound 3.16 µM
  IC50: 919 nM
Second compound 10 µM
  IC50: 1590 nM
[1]
  viability, T/C: 97.9%
[2]
  viability, T/C: 91.8%
[3]
  viability, T/C: 87.2%
[4]
  viability, T/C: 50.8%
[5]
  viability, T/C: 36.8%
[6]
  viability, T/C: 29.4%
[7]
  viability, T/C: 102%
[8]
  viability, T/C: 83.4%
[9]
  viability, T/C: 89.6%
[10]
  viability, T/C: 51.1%
[11]
  viability, T/C: 39.9%
[12]
  viability, T/C: 27.3%
[13]
  viability, T/C: 93.2%
[14]
  viability, T/C: 85.9%
[15]
  viability, T/C: 64.5%
[16]
  viability, T/C: 53.5%
[17]
  viability, T/C: 39.3%
[18]
  viability, T/C: 30.2%
[19]
  viability, T/C: 96.4%
[20]
  viability, T/C: 83.6%
[21]
  viability, T/C: 65.7%
[22]
  viability, T/C: 50.1%
[23]
  viability, T/C: 42.1%
[24]
  viability, T/C: 33.6%
[25]
  viability, T/C: 80.5%
[26]
  viability, T/C: 96.1%
[27]
  viability, T/C: 68.6%
[28]
  viability, T/C: 49.5%
[29]
  viability, T/C: 40.3%
[30]
  viability, T/C: 32.2%
[31]
  viability, T/C: 84.6%
[32]
  viability, T/C: 85.1%
[33]
  viability, T/C: 78.5%
[34]
  viability, T/C: 50.8%
[35]
  viability, T/C: 45.5%
[36]
  viability, T/C: 27.2%

## C=CCn1c(=O)c2cnc(Nc3ccc(N4CCN(C)CC4)cc3)nc2n1-c1cccc(C(C)(C)O)n1 + CN(C)c1ccc(Nc2c3ccc(NC(=O)CCN4CCCC4)cc3nc3cc(NC(=O)CCN4CCCC4)ccc23)cc1
Second compound 0.0316 µM
  IC50: 459 nM
Second compound 0.1 µM
  IC50: 682 nM
Second compound 0.316 µM
  IC50: 489 nM
Second compound 1 µM
  IC50: 548 nM
Second compound 3.16 µM
  IC50: 601 nM
Second compound 10 µM
  IC50: 1710 nM
[1]
  viability, T/C: 109%
[2]
  viability, T/C: 123%
[3]
  viability, T/C: 56.4%
[4]
  viability, T/C: 37.7%
[5]
  viability, T/C: 40.3%
[6]
  viability, T/C: 31.5%
[7]
  viability, T/C: 106%
[8]
  viability, T/C: 96.1%
[9]
  viability, T/C: 61.5%
[10]
  viability, T/C: 47.3%
[11]
  viability, T/C: 34.2%
[12]
  viability, T/C: 37.5%
[13]
  viability, T/C: 128%
[14]
  viability, T/C: 95.1%
[15]
  viability, T/C: 57.1%
[16]
  viability, T/C: 38.4%
[17]
  viability, T/C: 34.9%
[18]
  viability, T/C: 39.5%
[19]
  viability, T/C: 95.3%
[20]
  viability, T/C: 77.2%
[21]
  viability, T/C: 62.3%
[22]
  viability, T/C: 35.4%
[23]
  viability, T/C: 39.6%
[24]
  viability, T/C: 34.2%
[25]
  viability, T/C: 99.7%
[26]
  viability, T/C: 87.2%
[27]
  viability, T/C: 56.7%
[28]
  viability, T/C: 42%
[29]
  viability, T/C: 48.2%
[30]
  viability, T/C: 42.6%
[31]
  viability, T/C: 95%
[32]
  viability, T/C: 80%
[33]
  viability, T/C: 62.3%
[34]
  viability, T/C: 45.5%
[35]
  viability, T/C: 56.3%
[36]
  viability, T/C: 45.1%

## CC(=O)O[C@H]1C(=O)[C@@]2(C)[C@H]([C@H](OC(=O)c3ccccc3)[C@]3(O)C[C@H](OC(=O)[C@H](O)[C@@H](NC(=O)c4ccccc4)c4ccccc4)C(C)=C1C3(C)C)[C@]1(OC(C)=O)CO[C@@H]1C[C@@H]2O + CN(C)c1ccc(Nc2c3ccc(NC(=O)CCN4CCCC4)cc3nc3cc(NC(=O)CCN4CCCC4)ccc23)cc1
Second compound 0.0316 µM
  IC50: > 10000 nM
Second compound 0.1 µM
  IC50: > 10000 nM
Second compound 0.316 µM
  IC50: > 10000 nM
Second compound 1 µM
  IC50: > 10000 nM
Second compound 3.16 µM
  IC50: > 10000 nM
Second compound 10 µM
  IC50: > 10000 nM
[1]
  viability, T/C: 78.2%
[2]
  viability, T/C: 72.8%
[3]
  viability, T/C: 63.9%
[4]
  viability, T/C: 66.5%
[5]
  viability, T/C: 75.6%
[6]
  viability, T/C: 86%
[7]
  viability, T/C: 88%
[8]
  viability, T/C: 60.7%
[9]
  viability, T/C: 65.1%
[10]
  viability, T/C: 67.6%
[11]
  viability, T/C: 74.3%
[12]
  viability, T/C: 79.7%
[13]
  viability, T/C: 87.6%
[14]
  viability, T/C: 63.1%
[15]
  viability, T/C: 51.3%
[16]
  viability, T/C: 72.4%
[17]
  viability, T/C: 77.2%
[18]
  viability, T/C: 81.4%
[19]
  viability, T/C: 59.5%
[20]
  viability, T/C: 60.5%
[21]
  viability, T/C: 74.6%
[22]
  viability, T/C: 65.9%
[23]
  viability, T/C: 71%
[24]
  viability, T/C: 85.6%
[25]
  viability, T/C: 62.9%
[26]
  viability, T/C: 68.9%
[27]
  viability, T/C: 68.1%
[28]
  viability, T/C: 65.2%
[29]
  viability, T/C: 76.3%
[30]
  viability, T/C: 87.6%
[31]
  viability, T/C: 63.8%
[32]
  viability, T/C: 67.1%
[33]
  viability, T/C: 76.5%
[34]
  viability, T/C: 79.9%
[35]
  viability, T/C: 80.3%
[36]
  viability, T/C: 92.4%
